Reference: patent US9061984B2 (University of Louisville Research Foundation, Inc., priority 2008, dated 2015)
In brackets after ≈: the same amount, converted by molar mass. Like-named read-outs stand apart in the source and are kept apart here.

Experiments:
[1] = Toxicity to peritoneal macrophages (Trypan Blue count); type: cell-based, BALB/C mouse; conditions: BALB/C, mouse
M. tuberculosis H37Rv [2] = experiment: Conventional aerobic (MABA) culture assay, luminescence MIC; type: cell-based, Mycobacterium tuberculosis; conditions: for MIC: Mycobacterium tuberculosis, 168 h; for Selectivity Index H37Rv: VERO vs MABA MIC
[3] = test system: axenic amastigotes of L. amazonensis (strain MHOM/BR/76/LTB-012); conditions: Table 8b
3T3 cells = experiment: Cell growth inhibition bioassay (sulforhodamine B); type: cell-based, mouse; conditions: 48 h, SRB; for GI50: Mus musculus, NIH3T3, read-out: GI50 in indicated cell line: 3T3
Summary of the method: (§1)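 Cells were exposed to compound alongside matched solvent controls, then stained with sulforhodamine B. Percent growth inhibition was calculated from dye absorbance against the control.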

[4] = test system: axenic amastigotes of L. amazonensis (strain MHOM/BR/76/LTB-012); experiment: microbe, parasite or virus in culture; conditions: Leishmania amazonensis
[5] = Cytotoxicity VERO cell (Table 6); conditions: African green monkey, VERO cells
VERO cells [6] = experiment: Cell growth inhibition bioassay (sulforhodamine B); type: cell-based, African Green Monkey; conditions: 48 h, SRB; for GI50: Chlorocebus sabaeus, Vero, read-out: GI50 in indicated cell line: VERO
Summary of the method: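 Cytotoxicity is read by sulforhodamine B colorimetry following the Skehan protocol; values are growth inhibition relative to solvent-only wells.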

MCF-7 cells = experiment: Cell growth inhibition bioassay (sulforhodamine B); type: cell-based, human; conditions: 48 h, SRB; for GI50: Homo sapiens, MCF7, read-out: GI50 in indicated cell line: MCF-7
Summary of the method: (§2)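 Human cancer cells (MCF-7 breast, DU145 and PC3 prostate, H460 large cell lung) were treated with compounds. Growth relative to solvent control was quantified by SRB protein stain.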

H460 cells = experiment: Cell growth inhibition bioassay (sulforhodamine B); type: cell-based, human; conditions: 48 h, SRB; for GI50: Homo sapiens, NCI-H460, read-out: GI50 in indicated cell line: H460
Summary of the method: as §2

HT-29 cells = experiment: Cell growth inhibition bioassay (sulforhodamine B); type: cell-based, human; conditions: 48 h, SRB; for GI50: Homo sapiens, HT-29, read-out: GI50 in indicated cell line: HT-29
Summary of the method: as §1

DU145 cells = experiment: Cell growth inhibition bioassay (sulforhodamine B); type: cell-based, human; conditions: 48 h, SRB; for GI50: Homo sapiens, DU-145, read-out: GI50 in indicated cell line: DU145
Summary of the method: as §2

K562 cells = experiment: Cell growth inhibition bioassay (sulforhodamine B); type: cell-based, human; conditions: 48 h, SRB; for GI50: Homo sapiens, K562, read-out: GI50 in indicated cell line: K562
Summary of the method: as §1

M-14 cells = experiment: Cell growth inhibition bioassay (sulforhodamine B); type: cell-based, human; conditions: 48 h, SRB; for GI50: Homo sapiens, M14, read-out: GI50 in indicated cell line: M-14
Summary of the method: as §1

[7] = Cytotoxicity on VERO cells (MTT), anti-T. cruzi study; conditions: African green monkey, VERO cells
M. tuberculosis MDR = experiment: Anti-tuberculosis bioassay (tetrazolium microplate MIC); type: cell-based; conditions: Mycobacterium tuberculosis, read-out: Mycobacterium MIC MDR
M. tuberculosis H37Rv [8] = experiment: as above; type: cell-based; conditions: Mycobacterium tuberculosis, read-out: Mycobacterium MIC H37Rv, Table 5
[9] = test system: Trypanosoma cruzi (Tulahuen C4); experiment: In vitro anti-T. cruzi activity (β-galactosidase CPRG colorimetric assay in VERO monolayer); type: cell-based; conditions: for Selectivity Index Lab B: IC50, VERO/IC50, T. cruzi; for inhibition at 10 µg/mL / IC50: Trypanosoma cruzi, TULAHUEN, Vero; for inhibition at 10 µg/mL: 120 h, 10 μg/mL of each compound, 120 hours, read-out: T. cruzi Inhib. (%)
peritoneal macrophages = experiment: Toxicity to peritoneal macrophages (Trypan Blue count); type: cell-based, BALB/C mouse
VERO cell = experiment: Cytotoxicity VERO cell (Table 6); conditions: Table 6
VERO cells [10] = experiment: Cytotoxicity on VERO cells (MTT), anti-T. cruzi study; conditions: Lab B
[11] = test system: non-replicating persistence Mycobacterium tuberculosis (NRP-TB); experiment: Low oxygen recovery assay (LORA); type: cell-based; conditions: value in brackets
[12] = read-out: IC50 Cytotoxicity Against Amastigotes
[13] = IC50 - VERO Cytotoxicity, Table 2
[14] = Lab A, read-out: T. cruzi IC50 Lab A
[15] = Lab B, read-out: T. cruzi IC50 Lab B
[16] = Table 2, read-out: IC50 - T. cruzi

SMILES: C(=N/Nc1ncnc2sc3c(c12)CCCC3)/c1ccccc1 [II-01]
- IC50 at 48 h ([1]; Cytotoxicity Macrophages IC50): 8.7 µM
- MIC (M. tuberculosis H37Rv [2]; aerobic, 7 days, H37Rv): 23.4 µg/mL (≈ 75.9 µM)
- Selectivity Index H37Rv (M. tuberculosis H37Rv [2]): 0.5
- Selectivity Index [3]: 0.6
- GI50 (3T3 cells): 6.7 µg/mL (≈ 21.7 µM)
- IC50 [4, 12]: 3.2 µM
- IC50 ([4]; read-out: L. amazonensis IC50): 13.5 µM
- IC50 [5]: 11.1 µg/mL (≈ 36 µM)
- GI50 (VERO cells [6]): 5.3 µg/mL (≈ 17.2 µM)
- GI50 (MCF-7 cells): 3.5 µg/mL (≈ 11.3 µM)
- GI50 (H460 cells): 5.6 µg/mL (≈ 18.2 µM)
- GI50 (HT-29 cells): 3.8 µg/mL (≈ 12.3 µM)
- GI50 (DU145 cells): 6.2 µg/mL (≈ 20.1 µM)
- GI50 (K562 cells): 4.1 µg/mL (≈ 13.3 µM)
- GI50 (M-14 cells): 5.6 µg/mL (≈ 18.2 µM)
- IC50 ([7]; Cytotoxicity VERO Lab B, Lab B): 8 µg/mL (≈ 25.9 µM)
- IC50 [7, 13]: 29 µg/mL (≈ 94 µM)
- MIC (M. tuberculosis MDR): 6.25 µg/mL (≈ 20.3 µM)
- MIC (M. tuberculosis H37Rv [8]): 6.25 µg/mL (≈ 20.3 µM)
- Selectivity Index Lab B ([9]; Lab B): 1.8
- inhibition at 10 µg/mL [9]: 80.1%
- IC50 [9, 14]: 1.9 µg/mL (≈ 6.16 µM)
- IC50 [9, 15]: 4.4 µg/mL (≈ 14.3 µM)
- IC50 [9, 16]: 3.92 µg/mL (≈ 12.7 µM)

SMILES: C(=Cc1ccccc1)C=NNc1ncnc2sc3c(c12)CCCC3 [II-04]
- IC50 (peritoneal macrophages): 0.6 µM
- MIC MABA (M. tuberculosis H37Rv [2]; aerobic, 7 days, H37Rv): 11.7 µg/mL (≈ 35 µM)
- IC50 ([3]; read-out: L. amazonensis IC50): 5.5 µM
- GI50 in indicated cell line: 3T3 (3T3 cells): 1.5 µg/mL (≈ 4.49 µM)
- Cytotoxicity VERO cell (VERO cell): 1.2 µg/mL
- GI50 in indicated cell line: VERO (VERO cells [6]): 0.6 µg/mL (≈ 1.79 µM)
- GI50 in indicated cell line: MCF-7 (MCF-7 cells): 0.7 µg/mL (≈ 2.09 µM)
- GI50 in indicated cell line: H460 (H460 cells): 0.7 µg/mL (≈ 2.09 µM)
- GI50 in indicated cell line: HT-29 (HT-29 cells): 2.7 µg/mL (≈ 8.07 µM)
- GI50 in indicated cell line: DU145 (DU145 cells): 1.8 µg/mL (≈ 5.38 µM)
- GI50 in indicated cell line: K562 (K562 cells): 0.5 µg/mL (≈ 1.5 µM)
- GI50 in indicated cell line: M-14 (M-14 cells): 1.6 µg/mL (≈ 4.78 µM)
- Cytotoxicity VERO Lab B (VERO cells [10]): 7.0
- T. cruzi IC50 Lab A ([9]; Lab A): 0.4 µg/mL
- T. cruzi IC50 Lab B ([9]; Lab B): 0.5 µg/mL

SMILES: COc1ccc(/C=N\Nc2ncnc3sc4c(c23)CCCC4)cc1 [II-10]
- IC50 at 48 h ([1]; Cytotoxicity Macrophages IC50): 21.6 µM
- MIC (M. tuberculosis H37Rv [2]; aerobic, 7 days, H37Rv): 24.1 µg/mL (≈ 71.2 µM)
- Selectivity Index H37Rv (M. tuberculosis H37Rv [2]): 3.2
- Selectivity Index [3]: 1.3
- GI50 (3T3 cells): 5 µg/mL (≈ 14.8 µM)
- IC50 ([4]; read-out: L. amazonensis IC50): 16.1 µM
- IC50 [5]: 76.7 µg/mL (≈ 227 µM)
- GI50 (VERO cells [6]): 6.4 µg/mL (≈ 18.9 µM)
- GI50 (MCF-7 cells): 4.2 µg/mL (≈ 12.4 µM)
- GI50 (H460 cells): 5.8 µg/mL (≈ 17.1 µM)
- GI50 (HT-29 cells): 5.9 µg/mL (≈ 17.4 µM)
- GI50 (DU145 cells): 7.8 µg/mL (≈ 23 µM)
- GI50 (K562 cells): 4.7 µg/mL (≈ 13.9 µM)
- GI50 (M-14 cells): 5.5 µg/mL (≈ 16.3 µM)
- IC50 ([7]; Cytotoxicity VERO Lab B, Lab B): 6 µg/mL (≈ 17.7 µM)
- MIC ([11]; Mycobacterium tuberculosis, anaerobic 10 days, 28 hour recovery): 9.1 µg/mL (≈ 26.9 µM)
- Selectivity Index LORA ([11]; VERO vs LORA MIC): 8.5
- Selectivity Index Lab B ([9]; Lab B): 1.1
- IC50 [9, 15]: 5.4 µg/mL (≈ 16 µM)

SMILES: COc1cc(/C=N\Nc2ncnc3sc4c(c23)CCCC4)cc(OC)c1OC [II-14]
- IC50 at 48 h ([1]; Cytotoxicity Macrophages IC50): 3.6 µM
- IC50 at 48 h ([1]; IC50 Cytotoxicity Against Macrophages): > 10 µM
- MIC (M. tuberculosis H37Rv [2]; aerobic, 7 days, H37Rv): > 100 µg/mL
- Selectivity Index [3]: 1.2
- GI50 (3T3 cells): 9 µg/mL (≈ 22.6 µM)
- IC50 [4, 12]: 10.5 µM
- IC50 ([4]; read-out: L. amazonensis IC50): 2.9 µM
- GI50 (VERO cells [6]): 9.7 µg/mL (≈ 24.3 µM)
- GI50 (MCF-7 cells): 4.2 µg/mL (≈ 10.5 µM)
- GI50 (H460 cells): 11.3 µg/mL (≈ 28.4 µM)
- GI50 (HT-29 cells): 4.6 µg/mL (≈ 11.5 µM)
- GI50 (DU145 cells): 9 µg/mL (≈ 22.6 µM)
- GI50 (K562 cells): 1.9 µg/mL (≈ 4.77 µM)
- GI50 (M-14 cells): 6.2 µg/mL (≈ 15.6 µM)
- IC50 ([7]; Cytotoxicity VERO Lab B, Lab B): 11 µg/mL (≈ 27.6 µM)
- MIC (M. tuberculosis MDR): > 25 µg/mL
- MIC (M. tuberculosis H37Rv [8]): > 25 µg/mL
- inhibition at 10 µg/mL [9]: 2%
- IC50 [9, 14]: 3 µg/mL (≈ 7.53 µM)

SMILES: COc1cc(/C=N\Nc2ncnc3sc4c(c23)CCCC4)cc(OC)c1O [II-16]
- IC50 at 48 h ([1]; Cytotoxicity Macrophages IC50): 46.4 µM
- MIC (M. tuberculosis H37Rv [2]; aerobic, 7 days, H37Rv): > 100 µg/mL
- Selectivity Index [3]: 3.0
- GI50 (3T3 cells): 10.5 µg/mL (≈ 27.3 µM)
- IC50 [4, 12]: 21.9 µM
- IC50 ([4]; read-out: L. amazonensis IC50): 15.7 µM
- GI50 (VERO cells [6]): > 62.5 µg/mL
- GI50 (MCF-7 cells): > 62.5 µg/mL
- GI50 (H460 cells): > 62.5 µg/mL
- GI50 (HT-29 cells): > 62.5 µg/mL
- GI50 (DU145 cells): 10.5 µg/mL (≈ 27.3 µM)
- GI50 (K562 cells): > 62.5 µg/mL
- GI50 (M-14 cells): > 62.5 µg/mL
- IC50 [7, 13]: 124 µg/mL (≈ 323 µM)
- MIC (M. tuberculosis MDR): > 25 µg/mL
- MIC (M. tuberculosis H37Rv [8]): > 25 µg/mL
- inhibition at 10 µg/mL [9]: 58.6%
- IC50 [9, 14]: 4.9 µg/mL (≈ 12.7 µM)
- IC50 [9, 16]: 8.74 µg/mL (≈ 22.7 µM)
